Read-outs that look alike come from different tables or passages of the source.
Experiments:
[1] = test system: NO release of LPS-induced microglial N9 cells; assay: Inhibition of NO release in LPS-induced N9 cells (Griess); format: cell-based, murine; details: Mus musculus, 1 μg/mL LPS for 48 h, NO level in medium
Description: (§1) The anti-neuroinflammatory activity of DCH was evaluated and then the representative compounds were selected for the further study. […] In addition, in order to exclude the death influence, MTT-IC20 of all the compounds were measured. […] The exact reason was still unclear, but we supposed that it might be related to the homeostasis of cells. The tumor cells actually were always in hypoxia condition, in which DCH could promote the cytotoxic activity against tumor cells. In brief, DCH could reduce the release of NO caused by LPS-induced microglial cells.
(§2) N9 cells, which were in the logarithmic phase, were incubated for 24 h by adherent culture. Subsequently, the medium was changed to new one without serum. The cells were treated with different concentration of tested compounds. After specific time in the LPS condition, the supernatants were collected and analyzed.
The nitrite levels in medium were determined by Griess reaction. The absorbance was measured at 540 nm using a microplate reader.

MDA-MB-231 cells = assay: MTT cytotoxicity in MDA-MB-231 cells; format: cell-based; details: Homo sapiens
Description: (§3) As the anti-neuroinflammatory agents for cancer patients, all newly synthesized compounds were evaluated in vitro for antitumor activity against human breast cancer cell line MDA-MB-231, colorectal cancer cells HT-29 and HCT-116, and lung cancer cell line A549 by using the standard MTT method, respectively. Doxorubicin (DOX) and DHA were used as the reference standard. Additionally, owing to the rapid proliferation, the tumor cells actually was always in hypoxia condition. Therefore, the in vitro cytotoxicity was evaluated in two different conditions (hypoxia and normoxia).
(§4) After recovery, the cells were cultured in 96-well plates for 24 h at 37 °C in a humidified atmosphere with 95% air and 5% CO2. After treated with different tested compounds, the hypoxia groups were placed in a sealed hypoxia incubator chamber (Stemcell Technologies, Inc., Vancouver, BC, Canada) filled with 5% CO2 and 95% N2 for 24 h, and then transferred to the incubator chamber filled with air for 72 h. On the contrary, the normoxia groups were cultured under air condition for 96h.
(§5) Cancer cells HT-29 (Human Colorectal Adenocarcinoma cell line), MDA-MB-231 (Human Breast Cancer cell line), HCT-116 (Human Colorectal Carcinoma cell line), and A549 (Human Lung Adenocarcinomic cell line) were from ATCC.
(§6) When the adherent cells reached 80% confluence, the culture medium was discarded. The cells were digested by trypsin and collected after centrifugation. The fresh culture medium was gently blown into it to form single-cell suspension. Cell suspension will be diluted to 1.5–3 × 10^4 cells/mL. Each hole of 96-well plates was added 100 μL cell suspension and incubated for 24 h (5% CO2; 37 °C). Then the holes were added different concentrations of tested compounds. The early screening concentration is set to 100 μM, 50 μM, 25 μM, 12.5 μM, and 6.25 μM. Three replicates were made for each concentration of the tested compounds. After the cells were grown for 96h, 20 μL MTT (5 mg/mL) was added to each well and incubated for 4 h. The medium was discarded and each well was added 100 μL DMSO to dissolve the formazan blue. Absorbance was measured at 570 nm with a microplate reader (Synergy-HT, BioTek Instruments, Winooski, VT, USA).
(§7) Hypoxia condition: The cells were treated with different concentration of tested compounds, placed in hypoxia chamber (Catalog Number 27310, Stemcell Technologies, Inc., Vancouver, BC, Canada), and incubated for 24 h ([…]; 37 °C). Then the cells were placed in normoxia condition (5% CO2; 37 °C) and incubated for 72 h.

[2] = MTT cytotoxicity in N9 cells; format: cell-based, murine; details: mouse, N9 microglial cells, cytotoxic activity
Description: as §1, §6, §2

HCT-116 cells = assay: MTT cytotoxicity in HCT-116 cells; format: cell-based; details: Homo sapiens
Description: as §3, §4, §5, §6, §7

HT-29 cells = assay: MTT cytotoxicity in HT-29 cells; format: cell-based, Human; details: Homo sapiens, MTT
Description: as §3
After recovery, the cells were cultured in 96-well plates for 24 h at 37 °C in a humidified atmosphere with 95% air and 5% CO2. After treated with different tested compounds, the hypoxia groups were placed in a sealed hypoxia incubator chamber (Stemcell Technologies, Inc., Vancouver, BC, Canada) filled with 5% CO2 and 95% N2 for 24 h, and then transferred to the incubator chamber filled with air for 72 h. […]
as §5
as §6, with “After the cells were grown for 96h, 20 μL MTT (5 mg/mL) was added to each well and incubated for 4 h.” left out, “USA). […]” for “USA).”

A549 cells = assay: MTT cytotoxicity in A549 cells; format: cell-based; details: Homo sapiens
Description: as §3, §4, §5, §6, §7

[3] = MDA-MB-231, hypoxia 24 h then normoxia 72 h, read-out: IC50 MDA-MB-231 Hypoxia
[4] = MDA-MB-231, normoxia 96 h, read-out: IC50 MDA-MB-231 Normoxia
[5] = HCT-116, hypoxia 24 h then normoxia 72 h, read-out: IC50 HCT-116 Hypoxia
[6] = HCT-116, normoxia 96 h, read-out: IC50 HCT-116 Normoxia
[7] = HT-29, hypoxia 24 h then normoxia 72 h, read-out: IC50 HT-29 Hypoxia
[8] = HT-29, normoxia 96 h, read-out: IC50 HT-29 Normoxia
[9] = A549, hypoxia 24 h then normoxia 72 h, read-out: IC50 A549 Hypoxia
[10] = A549, normoxia 96 h, read-out: IC50 A549 Normoxia

SMILES | IC50 [1] [µM] | melting point [°C] | IC50 (MDA-MB-231 cells; [3]) [µM] | IC50 (MDA-MB-231 cells; [4]) [µM] | IC20 [2] [µM] | IC50 (HCT-116 cells; [5]) [µM] | IC50 (HCT-116 cells; [6]) [µM] | IC50 (HT-29 cells; [7]) [µM] | IC50 (HT-29 cells; [8]) [µM] | IC50 (A549 cells; [9]) [µM] | IC50 (A549 cells; [10]) [µM]
C[C@H]1[C@@H](OCc2cn(Cc3cc4ccccc4oc3=O)nn2)O[C@@H]2O[C@@]3(C)CC[C@H]4[C@H](C)CC[C@@H]1[C@@]24OO3 [1a, 3-((4-((10S)-dihydroartemisininoxy)methyl-1H-1,2,3-triazol-1-yl)-methyl)-2H-1-chromen-2-one] | 1.46 | 73 to 75 | 30.5 | 65 | > 10 | 49.8 | 48.9 | 14.3 | 18.4 | 53.9 | 83.5
C[C@H]1[C@@H](OCc2cn(Cc3cc4cc(Br)ccc4oc3=O)nn2)O[C@@H]2O[C@@]3(C)CC[C@H]4[C@H](C)CC[C@@H]1[C@@]24OO3 [1b, 6-bromo-3-((4-((10S)-dihydroartemisininoxy)methyl-1H-1,2,3-triazol-1-yl)-methyl)-2H-1-chromen-2-one] | > 10 | 78 to 80 | > 100 | > 100 | > 10 | > 100 | > 100 | 13.1 | 21.4 | > 100 | > 100
C[C@H]1[C@@H](OCc2cn(Cc3cc4cc(Cl)ccc4oc3=O)nn2)O[C@@H]2O[C@@]3(C)CC[C@H]4[C@H](C)CC[C@@H]1[C@@]24OO3 [1c, 6-chloro-3-((4-((10S)-dihydroartemisininoxy)methyl-1H-1,2,3-triazol-1-yl)-methyl)-2H-1-chromen-2-one] | 5.33 | 93 to 95 | 32.3 | > 100 | > 10 | 40.4 | 60.3 | 26.4 | 35.4 | 48.7 | 73.5
C[C@H]1[C@@H](OCc2cn(Cc3cc4cc(Cl)cc(Cl)c4oc3=O)nn2)O[C@@H]2O[C@@]3(C)CC[C@H]4[C@H](C)CC[C@@H]1[C@@]24OO3 [1d, 6,8-dichloro-3-((4-((10S)-dihydroartemisininoxy)methyl-1H-1,2,3-triazol-1-yl)-methyl)-2H-1-chromen-2-one] | 1.6 | 113 to 115 | 33.9 | 68.9 | > 10 | 48.6 | 60 | 13.3 | 14.9 | 45.4 | 53.3
C[C@H]1[C@@H](OCc2cn(Cc3cc4cc(Br)cc(Br)c4oc3=O)nn2)O[C@@H]2O[C@@]3(C)CC[C@H]4[C@H](C)CC[C@@H]1[C@@]24OO3 [1e, 6,8-dibromo-3-((4-((10S)-dihydroartemisininoxy)methyl-1H-1,2,3-triazol-1-yl)-methyl)-2H-1-chromen-2-one] | 0.48 | 103 to 105 | 45.5 | 77.9 | > 10 | > 100 | 54.5 | 26.9 | 15.3 | 59.8 | > 100
C[C@H]1[C@@H](OCCc2cn(Cc3cc4ccccc4oc3=O)nn2)O[C@@H]2O[C@@]3(C)CC[C@H]4[C@H](C)CC[C@@H]1[C@@]24OO3 [2a, 3-((4-(2-((10S)-dihydroartemisininoxy)ethyl)-1H-1,2,3-triazol-1-yl)-methyl)-2H-1-chromen-2-one] | 0.97 | 143 to 145 | > 100 | > 100 | > 10 | > 100 | > 100 | 19.4 | > 100 | > 100 | > 100

Second part, led by results:

IC50 [1] [µM] | melting point [°C] | SMILES | IC50 (MDA-MB-231 cells; [3]) [µM] | IC50 (MDA-MB-231 cells; [4]) [µM] | IC20 [2] [µM] | IC50 (HCT-116 cells; [5]) [µM] | IC50 (HCT-116 cells; [6]) [µM] | IC50 (HT-29 cells; [7]) [µM] | IC50 (HT-29 cells; [8]) [µM] | IC50 (A549 cells; [9]) [µM] | IC50 (A549 cells; [10]) [µM]
> 10 | – | Cc1ccc2oc(=O)cc(Cn3cc(CCO[C@H]4O[C@@H]5O[C@@]6(C)CC[C@H]7[C@H](C)CC[C@@H]([C@H]4C)[C@@]57OO6)nn3)c2c1 [4i, 6-methyl-4-((4-(2-((10S)-dihydroartemisininoxy)ethyl)-1H-1,2,3-triazol-1-yl)-methyl)-2H-1-chromen-2-one] | > 100 | > 100 | > 10 | > 100 | > 100 | 39 | > 100 | > 100 | > 100
1.59 | – | C[C@H]1[C@@H](OCCn2cc(COc3cc(=O)oc4ccccc34)nn2)O[C@@H]2O[C@@]3(C)CC[C@H]4[C@H](C)CC[C@@H]1[C@@]24OO3 [5j] | 69.4 | 100 | > 10 | > 100 | 77.2 | 12.2 | 30 | > 100 | > 100
1.58 | – | C[C@H]1[C@@H](O)O[C@@H]2O[C@@]3(C)CC[C@H]4[C@H](C)CC[C@@H]1[C@@]24OO3 [DHA, Dihydroartemisinin] | 45.9 | > 100 | > 10 | 25.9 | 10.3 | 11.7 | 51.1 | > 100 | > 100
